The results in this text go back to patent US20110152166A1, “METHOD OF MODULATION OF PROTEIN PHOSPHORYLATION-DEPENDENT CONFORMATIONAL TRANSITIONS WITH LOW MOLECULAR WEIGHT COMPOUNDS” (priority 2006, published 2011).

Numbering of substitutions follows the chain as printed. Ends that are not written are not given here.

Holding throughout (experiment): PDK1 activity assay with T308tide
What all share (type): biochemical

The target of one experiment is T1, GST-PDK1 [Val127Thr] (Homo sapiens, UniProt O15530, V127T).
T1 construct: different protein constructs, comprising the full length protein or the catalytic domain alone; made in house; host or cells: HEK293 cells (pEBG-2T-PDK1 mutant)
T1 sequence (O15530 1-556 V127T): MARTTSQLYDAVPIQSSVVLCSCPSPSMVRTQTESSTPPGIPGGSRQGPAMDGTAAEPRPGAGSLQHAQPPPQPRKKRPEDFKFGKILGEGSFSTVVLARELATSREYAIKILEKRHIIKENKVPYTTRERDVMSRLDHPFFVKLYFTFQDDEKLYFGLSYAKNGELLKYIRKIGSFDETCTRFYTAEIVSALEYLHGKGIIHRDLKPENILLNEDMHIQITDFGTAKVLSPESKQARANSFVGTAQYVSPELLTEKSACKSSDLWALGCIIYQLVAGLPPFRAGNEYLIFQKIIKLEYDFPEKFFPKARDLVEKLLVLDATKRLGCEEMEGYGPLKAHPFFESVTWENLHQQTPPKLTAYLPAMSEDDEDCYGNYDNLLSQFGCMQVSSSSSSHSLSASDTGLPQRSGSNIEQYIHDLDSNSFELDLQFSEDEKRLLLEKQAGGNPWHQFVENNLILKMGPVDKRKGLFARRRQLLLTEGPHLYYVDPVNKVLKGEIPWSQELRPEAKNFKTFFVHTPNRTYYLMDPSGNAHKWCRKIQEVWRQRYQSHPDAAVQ
The note with it: for AC50 / Max. activity: GST-PDK1 [Val127Thr]; for activation of PDK1 Val127Thr mutant: Val127 replaced by Thr.

For a further experiment, the target named is T2, GST-PDK1 [Phe157Met] (Homo sapiens, UniProt O15530, F157M).
T2 construct: different protein constructs, comprising the full length protein or the catalytic domain alone; made in house; host or cells: HEK293 cells (pEBG-2T-PDK1 mutant)
T2 sequence (O15530 1-556 F157M): T1 sequence (O15530 1-556 V127T) with T127V, F157M

The target of the next experiment is T3, GST-PDK1 [Leu155Glu] (Homo sapiens, UniProt O15530, L155E).
T3 construct: different protein constructs, comprising the full length protein or the catalytic domain alone; made in house; host or cells: HEK293 cells (pEBG-2T-PDK1 mutant)
T3 sequence (O15530 1-556 L155E): T1 sequence (O15530 1-556 V127T) with T127V, L155E
The conditions noted are these: for AC50: GST-PDK1 [Leu155Glu].

One may read the AC50 as the midpoint of the concentration-response curve, whichever way the signal moves.

`O=C(O)CSC(CC(=O)c1ccc(Cl)cc1)c1ccccc1` (stereo not shown) [Compound 1]: on GST-PDK1 [Val127Thr], the AC50 worked out at 104 ± 58 µM, the Max. activity was found to be 1.69 ± 0.2 U/mg and the “activation of PDK1 Val127Thr mutant” value is given as 240%. At GST-PDK1 [Phe157Met], the activity was half-maximal at 140 ± 100 µM (AC50) and the Max. activity was 0.9 ± 0.3 U/mg. Moreover, at GST-PDK1 [Leu155Glu], the AC50 entry was “No Effect”. For the same compound, the “activation of PDK1 mutant (in words)” value at GST-PDK1 [Leu155Glu] (Leu155 replaced with Glu, constitutively active) is given as “could not be further activated”.

Turning to “REPRILSEEEQEMFRDFDYIADWC [PIFtide, reference compound]”, on GST-PDK1 [Val127Thr], the concentration at half-maximal activity (AC50) stood at 0.14 ± 0.07 µM, the Max. activity is listed as 2.36 ± 0.15 U/mg and the “activation of PDK1 Val127Thr mutant” value amounted to 260%. On GST-PDK1 [Phe157Met], the half-maximal activity concentration (AC50) was 1.52 ± 0.59 µM and the Max. activity is 1.7 ± 0.24 U/mg. In addition, the half-maximal activity concentration (AC50) result on GST-PDK1 [Leu155Glu] is “No Effect”.
